Measured values reported in patent publication US7666901B2, “Analogs of 17-hydroxywortmannin as PI3K inhibitors” (Wyeth, priority 2004, dated 2010).
≈ marks a conversion by molar mass, not a printed value.

What was measured:
[1] = tested on: MDA468 (human breast cancer cell); experiment: Cell proliferation (MTS) assay, MDA468; type: cell-based; settings: Table 2, three days treatment; for IC50: Homo sapiens, 72 h
Procedure, shortened: (§1)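 Cells plated at about 3000 per well in RPMI-1640/10% FBS were dosed with compound one day later. Viability was read by MTS conversion (absorbance 490 nm, 1–2 h) three days after treatment began. Effect is expressed as percent of vehicle-treated growth on the same plate.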

Human TOR = molecular target: T1, Human TOR (Homo sapiens, UniProt P42345); experiment: Human TOR (mTOR) kinase assay, DELFIA format; type: biochemical; settings: Table 2
T1 construct: FLAG
Procedure, shortened: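 Purified FLAG-TOR (800 ng/mL) phosphorylates His6-S6K ([…]) with […] ATP in Hepes pH 7.4 buffer containing MnCl2, 2 h at room temperature. Phospho-Thr389 S6K detected by DELFIA using Europium-labelled anti-P(T389)-p70S6K antibody; enzyme inhibition calculated from signal.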

[2] = tested on: LNCaP (human prostate carcinoma); experiment: Cell proliferation (MTS) assay, LNCaP; type: cell-based; settings: Table 2, three days treatment; for IC50: Homo sapiens, LNCaP, 72 h
Procedure, shortened: as §1

[3] = tested on: DU145 (human prostate carcinoma/lymphocytic leukemia); experiment: Cell proliferation (MTS) assay, DU145; type: cell-based; settings: Table 2, three days treatment; for IC50: Homo sapiens, DU-145, 72 h
Procedure, shortened: as §1

PI3K = tested on: T2, PI3K; experiment: Fluorescence polarization assay for PI3K; type: biochemical; settings: Table 2
T2 construct: PI3K FP IC50
Procedure, shortened: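 PI3K was preincubated with compound at 1% DMSO final, then reacted with PIP2/ATP substrate for 30-60 min. The reaction was stopped with a detector mix giving 10 nM red probe and 70 nM GST-GRP. Fluorescence polarization (mP, Tamra filters) was read 30-90 min later and IC50 determined.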

[4] = tested on: MDA435 (human breast adenocarcinoma); experiment: Cell proliferation (MTS) assay, MDA435; type: cell-based; settings: Table 2, three days treatment; for IC50: Homo sapiens, MDA435, 72 h
Procedure, shortened: as §1

[5] = tested on: phosphor-AKT (S473) in Rat1 cells; experiment: Rat1-IGF1 assay (IGF-1 induced phospho-AKT immunoblot); type: cell-based, rat; settings: Table 2; for IC50: Rattus norvegicus
Procedure, shortened: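 After 24 h serum starvation, Rat1 cells got vehicle or varying 17-HWT concentrations for 2 hours, then IGF-1 (100 ng/mL) for 30 minutes. Lysates immunoblotted for phospho-AKT (S473) and total AKT.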

Row | SMILES | IC50 [1] | IC50 (Human TOR) | IC50 [2] | IC50 [3] | IC50 (PI3K) | IC50 [4] | IC50 [5] | MDA468 IC50 [1] | LNCaP IC50 [2] | DU145 IC50 [3] | MDA435 IC50 [4] | Rat1-IGF1 IC50 [5]
1 | COCC1OC(=O)C(=CN(C)CCCN2CCOCC2)C2=C(O)C(=O)C3=C(C(OC(C)=O)CC4(C)C(O)CCC34)C21C (centres unmarked) [Compound 27, Acetic acid 6,17-dihydroxy-1-methoxymethyl-10,13-dimethyl-4-{[methyl-(3-morpholin-4-yl-propyl)-amino]-methylene}-3,7-dioxo-1,3,4,7,10,11,12,13,14,15,16,17-dodecahydro-2-oxa-cyclopenta[a]phenanthren-11-yl ester] | 5 µg/mL (≈ 8.49 µM) | 2290 nM | 0.35 µg/mL (≈ 0.595 µM) | 23 µg/mL (≈ 39.1 µM) | 24 nM | 30 µg/mL (≈ 51 µM) | 0.1 µg/mL (≈ 0.17 µM) | – | – | – | – | –
2 | CCN(CC)CCCN(C=C1C(=O)OC(COC)C2(C)C1=C(O)C(=O)C1=C2C(OC(C)=O)CC2(C)C(O)CCC12)CCS(=O)(=O)c1ccccc1 (centres unmarked) [Compound 28, Acetic acid 4-{[(2-benzenesulfonyl-ethyl)-(3-diethylamino-propyl)-amino]-methylene}-6,17-dihydroxy-1-methoxymethyl-10,13-dimethyl-3,7-dioxo-1,3,4,7,10,11,12,13,14,15,16,17-dodecahydro-2-oxa-cyclopenta[a]phenanthren-11-yl ester] | 3 µg/mL (≈ 4.12 µM) | > 13700 nM | 0.12 µg/mL (≈ 0.165 µM) | 8.5 µg/mL (≈ 11.7 µM) | 131 nM | 11 µg/mL (≈ 15.1 µM) | > 0.1 µg/mL | – | – | – | – | –
3 | COCC1OC(=O)C(=CN(Cc2ccccc2)CC23CCCN(CCC2)C3)C2=C(O)C(=O)C3=C(C(OC(C)=O)CC4(C)C(O)CCC34)C21C (centres unmarked) [Compound 29, Acetic acid 4-{[(1-aza-bicyclo[3.3.1]non-5-ylmethyl)-benzyl-amino]-methylene}-6,17-dihydroxy-1-methoxymethyl-10,13-dimethyl-3,7-dioxo-1,3,4,7,10,11,12,13,14,15,16,17-dodecahydro-2-oxa-cyclopenta[a]phenanthren-11-yl ester] | 15 µg/mL (≈ 22.2 µM) | > 14800 nM | 1.8 µg/mL (≈ 2.67 µM) | 30 µg/mL (≈ 44.5 µM) | 373 nM | > 30 µg/mL | > 0.1 µg/mL | – | – | – | – | –
4 | COCC1OC(=O)C(=CN2CCN(CCCN3CCOCC3)CC2)C2=C(O)C(=O)C3=C(C(OC(C)=O)CC4(C)C(O)CCC34)C21C (centres unmarked) [Compound 30, Acetic acid 6,17-dihydroxy-1-methoxymethyl-10,13-dimethyl-4-[4-(3-morpholin-4-yl-propyl)-piperazin-1-ylmethylene]-3,7-dioxo-1,3,4,7,10,11,12,13,14,15,16,17-dodecahydro-2-oxa-cyclopenta[a]phenanthren-11-yl ester] | 4 µg/mL (≈ 6.21 µM) | 1200 nM | 0.41 µg/mL (≈ 0.637 µM) | 21 µg/mL (≈ 32.6 µM) | 46 nM | 21 µg/mL (≈ 32.6 µM) | 0.02 µg/mL (≈ 0.0311 µM) | – | – | – | – | –
5 | COCC1OC(=O)C(=CN(C)CCN(C)C)C2=C(O)C(=O)C3=C(C(OC(C)=O)CC4(C)C(O)CCC34)C21C (centres unmarked) [Compound 31, Acetic acid 4-{[(2-dimethylamino-ethyl)-methyl-amino]-methylene}-6,17-dihydroxy-1-methoxymethyl-10,13-dimethyl-3,7-dioxo-1,3,4,7,10,11,12,13,14,15,16,17-dodecahydro-2-oxa-cyclopenta[a]phenanthren-11-yl ester] | 4 µg/mL (≈ 7.51 µM) | 1280 nM | 0.4 µg/mL (≈ 0.751 µM) | 21 µg/mL (≈ 39.4 µM) | 9 nM | 23 µg/mL (≈ 43.2 µM) | 0.1 µg/mL (≈ 0.188 µM) | – | – | – | – | –
6 | COCC1OC(=O)C(=CN2CCN(CCCN(C)C)CC2)C2=C(O)C(=O)C3=C(C(OC(C)=O)CC4(C)C(O)CCC34)C21C (centres unmarked) [Compound 32, Acetic acid 4-[4-(3-dimethylamino-propyl)-piperazin-1-ylmethylene]-6,17-dihydroxy-1-methoxymethyl-10,13-dimethyl-3,7-dioxo-1,3,4,7,10,11,12,13,14,15,16,17-dodecahydro-2-oxa-cyclopenta[a]phenanthren-11-yl ester] | 4.1 µg/mL (≈ 6.81 µM) | 249 nM | 0.5 µg/mL (≈ 0.831 µM) | 20 µg/mL (≈ 33.2 µM) | 39 nM | 22 µg/mL (≈ 36.6 µM) | 0.1 µg/mL (≈ 0.166 µM) | – | – | – | – | –
7 | COCC1OC(=O)C(=CN2CCN(CCN3CCOCC3)CC2)C2=C(O)C(=O)C3=C(C(OC(C)=O)CC4(C)C(O)CCC34)C21C (centres unmarked) [Compound 33, Acetic acid 6,17-dihydroxy-1-methoxymethyl-10,13-dimethyl-4-[4-(2-morpholin-4-yl-ethyl)-piperazin-1-ylmethylene]-3,7-dioxo-1,3,4,7,10,11,12,13,14,15,16,17-dodecahydro-2-oxa-cyclopenta[a]phenanthren-11-yl ester] | 4.3 µg/mL (≈ 6.83 µM) | 619 nM | 0.5 µg/mL (≈ 0.794 µM) | 20 µg/mL (≈ 31.8 µM) | 78 nM | 18 µg/mL (≈ 28.6 µM) | 0.1 µg/mL (≈ 0.159 µM) | – | – | – | – | –
8 | COCC1OC(=O)C(=CN2CCN(C3CCN(C)CC3)CC2)C2=C(O)C(=O)C3=C(C(OC(C)=O)CC4(C)C(O)CCC34)C21C (centres unmarked) [Compound 34, Acetic acid 6,17-dihydroxy-1-methoxymethyl-10,13-dimethyl-4-[4-(1-methyl-piperidin-4-yl)-piperazin-1-ylmethylene]-3,7-dioxo-1,3,4,7,10,11,12,13,14,15,16,17-dodecahydro-2-oxa-cyclopenta[a]phenanthren-11-yl ester] | 6 µg/mL (≈ 9.78 µM) | 961 nM | 0.48 µg/mL (≈ 0.782 µM) | 25 µg/mL (≈ 40.7 µM) | 91 nM | 22 µg/mL (≈ 35.8 µM) | 0.1 µg/mL (≈ 0.163 µM) | – | – | – | – | –
9 | COCC1OC(=O)C(=CN(C)CC(=O)OC(C)(C)C)C2=C(O)C(=O)C3=C(C(OC(C)=O)CC4(C)C(O)CCC34)C21C (centres unmarked) [Compound 35, [(11-Acetoxy-6,17-dihydroxy-1-methoxymethyl-10,13-dimethyl-3,7-dioxo-1,7,10,11,12,13,14,15,16,17-decahydro-2-oxa-cyclopenta[a]phenanthren-4-ylidenemethyl)-methyl-amino]-acetic acid tert-butyl ester] | 1.4 µg/mL (≈ 2.43 µM) | 13900 nM | 0.1 µg/mL (≈ 0.174 µM) | 3 µg/mL (≈ 5.21 µM) | 1580 nM | 5.5 µg/mL (≈ 9.55 µM) | 0.1 µg/mL (≈ 0.174 µM) | – | – | – | – | –
10 | COCC1OC(=O)C(=CN(C)CC(O)CO)C2=C(O)C(=O)C3=C(C(OC(C)=O)CC4(C)C(O)CCC34)C21C (centres unmarked) [Compound 36, Acetic acid 4-{[(2,3-dihydroxy-propyl)-methyl-amino]-methylene}-6,17-dihydroxy-1-methoxymethyl-10,13-dimethyl-3,7-dioxo-1,3,4,7,10,11,12,13,14,15,16,17-dodecahydro-2-oxa-cyclopenta[a]phenanthren-11-yl ester] | 2.3 µg/mL (≈ 4.29 µM) | 2990 nM | 0.09 µg/mL (≈ 0.168 µM) | 12 µg/mL (≈ 22.4 µM) | 199 nM | 5 µg/mL (≈ 9.34 µM) | 0.1 µg/mL (≈ 0.187 µM) | – | – | – | – | –
11 | COCC1OC(=O)C(=CN(C)CCCC(=O)O)C2=C(O)C(=O)C3=C(C(OC(C)=O)CC4(C)C(O)CCC34)C21C (centres unmarked) [Compound 37, 4-[(11-Acetoxy-6,17-dihydroxy-1-methoxymethyl-10,13-dimethyl-3,7-dioxo-1,7,10,11,12,13,14,15,16,17-decahydro-2-oxa-cyclopenta[a]phenanthren-4-ylidenemethyl)-methyl-amino]-butyric acid] | 4 µg/mL (≈ 7.3 µM) | 12600 nM | 0.2 µg/mL (≈ 0.365 µM) | 21 µg/mL (≈ 38.3 µM) | 193 nM | 12 µg/mL (≈ 21.9 µM) | 0.1 µg/mL (≈ 0.183 µM) | – | – | – | – | –
12 | COCC1OC(=O)C(=CN2CCC2C(=O)O)C2=C(O)C(=O)C3=C(C(OC(C)=O)CC4(C)C(O)CCC34)C21C (centres unmarked) [Compound 38, 1-(11-Acetoxy-6,17-dihydroxy-1-methoxymethyl-10,13-dimethyl-3,7-dioxo-1,7,10,11,12,13,14,15,16,17-decahydro-2-oxa-cyclopenta[a]phenanthren-4-ylidenemethyl)-azetidine-2-carboxylic acid] | 1.3 µg/mL (≈ 2.45 µM) | 9590 nM | 0.06 µg/mL (≈ 0.113 µM) | 2.4 µg/mL (≈ 4.52 µM) | 63 nM | 4 µg/mL (≈ 7.53 µM) | 0.1 µg/mL (≈ 0.188 µM) | – | – | – | – | –
13 | COCC1OC(=O)C(=CN2CCCC2C(=O)OC)C2=C(O)C(=O)C3=C(C(OC(C)=O)CC4(C)C(O)CCC34)C21C (centres unmarked) [Compound 39, 1-(11-Acetoxy-6,17-dihydroxy-1-methoxymethyl-10,13-dimethyl-3,7-dioxo-1,7,10,11,12,13,14,15,16,17-decahydro-2-oxa-cyclopenta[a]phenanthren-4-ylidenemethyl)-pyrrolidine-2-carboxylic acid methyl ester] | 1.2 µg/mL (≈ 2.14 µM) | 12300 nM | 0.043 µg/mL (≈ 0.0768 µM) | 2.4 µg/mL (≈ 4.29 µM) | 770 nM | 4 µg/mL (≈ 7.15 µM) | 0.1 µg/mL (≈ 0.179 µM) | – | – | – | – | –
14 | COCC1OC(=O)C(=CN2CCCC2C(=O)OC)C2=C(O)C(=O)C3=C(C(OC(C)=O)CC4(C)C(O)CCC34)C21C (centres unmarked) [Compound 40, 1-(11-Acetoxy-6,17-dihydroxy-1-methoxymethyl-10,13-dimethyl-3,7-dioxo-1,7,10,11,12,13,14,15,16,17-decahydro-2-oxa-cyclopenta[a]phenanthren-4-ylidenemethyl)-pyrrolidine-2-carboxylic acid methyl ester] | – | > 17900 nM | – | – | 444 nM | – | – | 0.75 µg/mL | 0.085 µg/mL | 1.85 µg/mL | 5.5 µg/mL | >0.1(hint) μg/ml
